Assay results as given in patent US20240342190A1, “METHODS FOR REDUCING ISCHEMIA-REPERFUSION INJURIES” (BioMimetix JV, LLC, priority 2023, published 2024).
Entries after “also recorded” stand apart in the source; their conditions may differ.

Legend:
blood brain barrier = assay: Experiment 7: blood brain barrier permeability after intracarotid infusion (Evans blue content); conditions: non-stroke rats, vs vehicle
Experimental: 30 μg/kg of BMX-001 (n=4), or same amount of saline (n=4) or mannitol (n=4) was given to normal male Wistar rats through the carotid artery. The rats received 100 μl 2% Evans blue intravenous infusion 30 min later and then intracardially perfused using 100 ml normal saline at 30 min following infusion. Brains were harvested and the Evans blue content was measured spectrophotometrically.

[1] = Experiment 6: BMX-001 plasma and brain concentration measurement (LC/MS/MS); type: in vivo, rat
Experimental: Young male Wistar rats (n=4) were subjected to 90 min of MCAO and 30 μg/kg of BMX-001 intra-carotid infusion following reperfusion. Blood and brain samples were harvested at 30 min after BMX-001 infusion, stored in −80° C. freezer, and measured using Liquid chromatography-tandem-mass spectroscopy (LC/MS/MS) analysis. Brain tissue was homogenized in water (1 g in 2 mL water). Then, […] or […], two Zr-silica beads (2.5 mm), […] 1% HFBA (heptafluorobutyric acid) in 30% acetonitrile/water+BMX-001-d8 (int. std.,50 nM), and […] of chloroform/isopropanol (4/1, v/v) was added to polypropylene tube and vigorously agitated in FastPrep (Thermo Savant) at speed 6 for 45 s, followed by centrifugation at 16,000 rcf for 5 min at room temperature. The […] aliquot of organic (lower) layer was transferred to polypropylene tube and evaporated to dryness by gentle stream of nitrogen. The dry residue was reconstituted into […] of mobile phase A, and […] injected into LC/MS/MS system. The LC/MS/MS analysis was performed on Agilent 1200 HPLC-AB/SCIEX 5500 QTrap MS/MS instrument. LC column: Phenomenex Kinetex 4×3 mm, C18 guard cartridge at 35° C.; mobile phase A: 0.05% HFBA, 10% acetonitrile, water; mobile phase B: 0.05% HFBA in acetonitrile; elution gradient: 0-1 min 0-70% B, 1-2 min 70% B, 2-2.1 min 70-100% B, 2.1-2.6 min 100% B, 2.6-2.7 min 100-0% B; run time: 4 min. MS/MS transitions: BMX-001 (3×HFBA) at m/z 857.3/599.7. Calibration samples in 2.4 (LOQ)—300 nM brain tissue or 0.47 (LOQ)—30 nM plasma concentration range were prepared by adding known amounts of BMX-001 into blank brain homogenate or plasma, and analyzed alongside study samples as a single analytical batch.

[2] = test system: brain tissues and vessels (vascular endothelial wall); assay: Experiment 7: body weight and brain/vascular histology after intracarotid infusion; conditions: non-stroke rats; 3 days after intracarotid infusion; H&E
Experimental: 30 μg/kg of BMX-001 (n=4), or same amount of saline (n=4) or Solu-Medrol (n=4) was given to normal Wistar rats through the carotid artery. Rats were recovered for 3 days and perfused intracardially with normal saline followed by 10% formalin. Brains were paraffin embedded, cut, and stained with hematoxylin and eosin. Vascular histologic damage was assessed.

[3] = 30 μg/kg intracarotid after 90 min MCAO, 30 min after infusion, n=4

## CCCCOCC[n+]1ccccc1C1=C2C=CC3=[N+]2[Mn]24[n]5c1ccc5C(c1cccc[n+]1CCOCCCC)=C1C=CC(=[N+]12)C(c1cccc[n+]1CCOCCCC)=c1ccc([n]14)=C3c1cccc[n+]1CCOCCCC [BMX-001, MnTnBuOE-2-PyP^5+]
Blood brain barrier
  Evans blue content in brain / blood brain barrier permeability, in words: only somewhat higher Evans blue content; also recorded: did not affect the BBB
[1]; [3]
  BMX-001 content in contralateral brain hemisphere: 0.5 ± 0.3 nM
  BMX-001 content in ipsilateral brain hemisphere: 7.4 ± 8.6 nM
  BMX-001 content in plasma: 11.3 ± 1.2 nM
[1]; direct intracarotid infusion
  BMX-001 concentration at the site of brain injury relative to the contralateral hemisphere: 15 fold
[2]
  Brain histology / vascular histologic damage, in words: normal; also recorded: no histologic damage
